One block for each molecule: values may come before it.
What was measured:
[1] = tested on: S-ADH from X. autotrophicus strain Py2; assay: Secondary alcohol dehydrogenase NADH oxidation spectrophotometric assay; format: biochemical, Xanthobacter autotrophicus strain Py2
Experimental: (§1) Assays were performed in 2 mL quartz cuvettes and contained NAD(H) (0.2 mM), potassium phosphate buffer (25 mM), and a source of enzyme (cell-free extracts, column fractions, or purified enzyme) in a total reaction volume of 1 mL at pH 6.2 ([…]) at 30° C. Assays were pre-incubated for 1.5 min. at 30° C. with all assay components except substrate. Assays were initiated by addition of substrate (2.5 mM) and monitored over time by measuring the change in absorbance at 340 nm (∈340 of 6.22 mM^−1·cm^−1 for NADH).
Data analysis. Kinetic constants (Km and Vmax) were calculated by fitting initial rate data to the Michaelis-Menten equation and using the software KaleidaGraph Fourth Edition, (Synergy Software, Reading, Pa.).

S-ADH from strain IP-1 = assay: S-ADH spectrophotometric assay, partially purified S-ADH of isolate IP-1; format: biochemical, isopropanol-grown bacterial strain TDCC IP-1
Experimental: Protein purifications. […] Secondary alcohol dehydrogenase (S-ADH) from X. autotrophicus Py2 was purified via the following protocol. Cell-free extracts (380 mL) of isopropanol-grown X. autotrophicus Py2 (150 g) were prepared as described above, and applied to a 5×15 cm column of DEAE-Sepharose FAST FLOW (Diethylaminoethyl cross-linked agarose bead material; Catalog number 17-0709-10, Amersham Pharmacia Biotech, Piscataway, N.J.)) equilibrated in buffer A (25 mM MOPS (3-(N-morpholino)propanesulfonic acid), pH 7.6, 5% glycerol, 1 mM dithiothreitol) at a flow rate of 10 mL/min. After loading, the column was washed with […] buffer A and developed with a 2400 mL linear gradient of 90-290 mM KCl in buffer A. Fractions containing S-ADH activity were pooled and dialyzed against 2 L of 25 mM potassium phosphate (pH 6.2) containing 5% glycerol (buffer B) for 16 h at 4° C. […] After washing the column with 30 mL of buffer B, S-ADH was eluted with 20 mL of buffer A containing 10 mM NAD^+. Fractions containing S-ADH were then dialyzed against 2 L of buffer A for 16 h at 4° C., concentrated by ultrafiltration (using a YM30 ultrafiltration membrane; catalog no. 13722, from Millipore, Bedford, Mass.), and frozen in liquid nitrogen. Partially purified S-ADH from bacterial screen cultures was prepared as follows: cell-free extracts from 1 to 5 g of cell paste were prepared as described above and applied to a 5 mL HI TRAP Q column (quaternary, tetraethylammonium, cross-linked agarose bead material for use as an anion exchange matrix; catalog number 17-1153-01, Amersham Pharmacia Biotech) equilibrated in 100 mM MOPS, pH 7.6, containing 5% (v/v) glycerol (buffer C). The column was washed with 10 mL buffer C and developed with a 100 mL linear gradient of 0 to 100 mM NaCl in buffer C. Fractions containing S-ADH activity were pooled, concentrated to 0.5 mL using a 30 kDa MWCO (“molecular weight cut-off”) centrifugal membrane (catalog number UFV4BTK25, Millipore), and stored at −80° C.
as §1

S-ADH from T. brockii = molecular target: T1, S-ADH from T. brockii (Thermoanaerobacter brockii, UniProt P14941); assay: S-ADH spectrophotometric assay, T. brockii S-ADH; format: biochemical, Thermoanaerobium brockii
T1 sequence (P14941 1-352): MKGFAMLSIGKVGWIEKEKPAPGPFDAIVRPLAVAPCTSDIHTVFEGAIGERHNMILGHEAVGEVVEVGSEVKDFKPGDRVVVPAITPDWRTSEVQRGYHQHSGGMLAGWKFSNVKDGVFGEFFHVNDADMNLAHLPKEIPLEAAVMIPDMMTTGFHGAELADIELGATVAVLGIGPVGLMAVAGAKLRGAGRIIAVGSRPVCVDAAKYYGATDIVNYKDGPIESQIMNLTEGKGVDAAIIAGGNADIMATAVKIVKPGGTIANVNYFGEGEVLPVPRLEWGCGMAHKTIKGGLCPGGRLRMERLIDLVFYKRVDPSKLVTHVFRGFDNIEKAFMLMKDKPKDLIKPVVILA
Experimental: […] Assays were pre-incubated for 1.5 min. at 30° C. with all assay components except substrate. Assays were initiated by addition of substrate (2.5 mM) and monitored over time by measuring the change in absorbance at 340 nm (∈340 of 6.22 mM^−1·cm^−1 for NADH).

[2] = tested on: S-ADH from M. vaccae JOB-5; assay: S-ADH spectrophotometric assay, propane-grown M. vaccae JOB-5; format: biochemical, Mycobacterium vaccae strain JOB-5
Experimental: as §1

S-ADH from C. boidinii = assay: S-ADH spectrophotometric assay, C. boidinii S-ADH; format: biochemical, Candida boidinii; conditions: pH 7.6, 5 mM substrate; for Relative S-ADH Activity (%) C. boidinii, alcohol oxidation: alcohol oxidation rates, 0.2 mM NAD+, 2-propanol = 100
Experimental: as §1, with “Assays were initiated by addition of substrate (2.5 mM) and monitored over time by measuring the change in absorbance at 340 nm (∈340 of 6.22 mM^−1·cm^−1 for NADH).” left out

[3] = ketone reduction rates, pH 6.2, 2.5 mM substrate, 0.2 mM NADH, acetone = 100
[4] = alcohol oxidation rates, pH 7.6, 2.5 mM substrate, 0.2 mM NAD+, 2-propanol = 100, NA = no activity detected

Km ([1]; acetone at fixed saturating concentration, read-out: Km for NADH): 5.1 ± 0.4 µM
ability to serve as electron donor in acetone reduction assays ([1]; data not shown): could serve as the electron donor
Compound: NC(=O)C1=CN([C@@H]2O[C@H](COP(=O)(O)OP(=O)(O)OC[C@H]3O[C@@H](n4cnc5c(N)ncnc54)[C@H](O)[C@@H]3O)[C@@H](O)[C@H]2O)C=CC1 [NADH, nicotinamide adenine dinucleotide, reduced form]

Compound: CCC(=O)CC [3-Pentanone]
Relative S-ADH Activity (%) IP-1, ketone reduction (S-ADH from strain IP-1; [3]): 5%
Relative S-ADH Activity (%) X. Py2, ketone reduction [1, 3]: 180%
Relative S-ADH Activity (%) T. brockii, ketone reduction (S-ADH from T. brockii; ketone reduction rates, pH 6.2, 2.5 mM substrate, 0.2 mM NADPH, acetone = 100): 49%
Relative S-ADH Activity (%) JOB 5, ketone reduction [2, 3]: 26%
Relative S-ADH Activity (%) C. boidinii, ketone reduction (S-ADH from C. boidinii; ketone reduction rates, 0.2 mM NADH, acetone = 100): 60%

specific activity, alcohol oxidation ([1]; at pH 7.8): No activity
Compound: CCCCCO [1-Pentanol]
Relative S-ADH Activity (%) C. boidinii, alcohol oxidation (S-ADH from C. boidinii): 8%

Compound: CCCC(C)O (stereo not drawn) [2-Pentanol]
Relative S-ADH Activity (%) IP-1, alcohol oxidation (S-ADH from strain IP-1; [4]): 18%
Relative S-ADH Activity (%) X. Py2, alcohol oxidation [1, 4]: 157%
Relative S-ADH Activity (%) T. brockii, alcohol oxidation (S-ADH from T. brockii; alcohol oxidation rates, pH 7.6, 2.5 mM substrate, 0.2 mM NADP+, 2-propanol = 100, NA = no activity detected): 38%
Relative S-ADH Activity (%) JOB 5, alcohol oxidation [2, 4]: 68%
Relative S-ADH Activity (%) C. boidinii, alcohol oxidation (S-ADH from C. boidinii): 22%

Compound: CO [methanol]
inhibition of S-ADH activity ([1]; saturating acetone, alcohol at about 13-fold over the Km value for acetone, data not shown): no inhibition was observed

Reference: patent publication US7794994B2 (Kemeta, LLC, priority 2001, dated 2010)
